Reference: publication PMC3272345 (Chemmedchem, 2011)

What was measured:
[1] = target: HsCDK2–CYCA (Homo sapiens, UniProt P24941); experiment: radiometric CDK2 counter-screen; assay type: biochemical; settings: HsCDK2–CYCA IC50 [μM], mean of two or more experiments; 1 μM ATP
[2] = target: T1, Leishmania CRK3–CYC6 complex (Leishmania mexicana, UniProt O15851); experiment: IMAP-FP primary screen; assay type: biochemical, L. mexicana CRK3, L. major CYC6; settings: for inhibition at 30 µM: read-out: CRK3–CYC6 Inhib. [%]
T1 sequence (O15851 1-311): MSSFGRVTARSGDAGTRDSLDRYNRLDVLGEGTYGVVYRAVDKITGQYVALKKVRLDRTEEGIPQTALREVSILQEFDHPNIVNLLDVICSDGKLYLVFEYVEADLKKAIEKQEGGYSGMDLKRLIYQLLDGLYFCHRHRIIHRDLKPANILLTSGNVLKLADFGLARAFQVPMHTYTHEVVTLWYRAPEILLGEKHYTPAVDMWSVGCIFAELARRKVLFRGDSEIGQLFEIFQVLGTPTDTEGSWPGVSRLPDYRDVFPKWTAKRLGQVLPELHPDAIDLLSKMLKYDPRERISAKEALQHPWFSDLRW
T1 sequence (Q4Q4U0 1-303 partner): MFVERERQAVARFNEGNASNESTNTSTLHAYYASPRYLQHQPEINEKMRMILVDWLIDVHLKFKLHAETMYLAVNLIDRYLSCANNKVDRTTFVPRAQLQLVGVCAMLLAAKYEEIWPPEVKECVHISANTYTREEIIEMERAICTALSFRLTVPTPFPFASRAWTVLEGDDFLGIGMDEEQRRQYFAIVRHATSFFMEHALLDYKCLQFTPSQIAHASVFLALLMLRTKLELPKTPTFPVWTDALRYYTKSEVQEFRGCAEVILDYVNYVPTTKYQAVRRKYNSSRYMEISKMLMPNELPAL

[3] = target: T2, Leishmania CRK3–CYC6 (Leishmania mexicana, UniProt O15851); experiment: radiometric CRK3 assay; assay type: biochemical, L. mexicana CRK3, L. major CYC6
T2 sequence (O15851 1-311): T1 sequence (O15851 1-311)
T2 sequence (Q4Q4U0 1-303 partner): T1 sequence (Q4Q4U0 1-303 partner)

[4] = test system: panel of 76 human kinases; experiment: DSTT Dundee kinase panel; assay type: biochemical; settings: for selectivity against panel of 76 human kinases (in words): 10 μM
[5] = mammalian cell line counter-screen; assay type: cell-based; settings: human, MRC5 cells
[6] = CRK3–CYC6 IC50 [μM], mean of two or more experiments, 1 μM ATP

SMILES | IC50 [1] [µM] | IC50 [3, 6] [µM] | also measured
O=C(Nc1cc(-c2ccc(Cl)cc2)[nH]n1)c1cccnc1 [Compound 10, N-(5-(4-Chlorophenyl)-1H-pyrazol-3-yl)nicotinamide] |  |  | inhibition at 30 µM [2]: 100%
COc1ccc(NC(=O)NC2=CC(=O)CC(C)(C)C2)cc1 [Compound 57] | > 100 | 0.89 | 
COc1ccccc1NC(=O)NC1=CC(=O)CC(C)(C)C1 [Compound 55] | > 100 | 8 | 
CN[C@@H]1C[C@H]2O[C@@](C)([C@@H]1OC)n1c3ccccc3c3c4c(c5c6ccccc6n2c5c31)C(=O)NC4 [staurosporine, reference compound] |  |  | IC50 [2]: 29 nM; IC50 ([3]; potency (IC50) in radiometric Leishmania CRK3 assay): 0.0091 µM
CC1(C)CC(=O)C=C(NC(=O)NC2CCCCC2)C1 [Compound 54, 1-Cyclohexyl-3-(5,5-dimethyl-3-oxocyclohex-1-en-1-yl)urea] | > 100 | 0.098 | 
CC1(C)CC(=O)C=C(NC(=O)Nc2ccc(OCc3ccccc3)cc2)C1 [Compound 58] | > 100 | 0.11 | selectivity against panel of 76 human kinases (in words) [4]: highly selective
CC1(C)CC(=O)C=C(NC(=O)Nc2ccccc2)C1 [Compound 50] | > 100 | 0.095 | EC50 [5]: ≥ 50000 nM
COC(=O)c1ccc(NC(=O)NC2=CC(=O)CC(C)(C)C2)cc1 [Compound 59] | > 100 |  | selectivity against panel of 76 human kinases (in words) [4]: highly selective
COc1cccc(NC(=O)NC2=CC(=O)CC(C)(C)C2)c1 [Compound 56, 1-(5,5-Dimethyl-3-oxocyclohex-1-en-1-yl)-3-(3-methoxyphenyl)urea] | > 100 | 0.04 | 
O=C(Nc1cc(-c2ccc(Cl)cc2)[nH]n1)C1CCCCC1 [Compound 11, N-[5-(4-Chlorophenyl)-1H-pyrazol-3-yl]cyclohexanecarboxamide] |  |  | inhibition at 30 µM [2]: 100%; selectivity against panel of 76 human kinases (in words) [4]: highly selective; number of human kinases with >50 % inhibition at 10 μM ([4]; of 76 kinases): three

Second part, led by results:

IC50 [1] [µM] | IC50 [3, 6] [µM] | SMILES | also measured
5.9 |  | CC1(C)CC(=O)C=C(NC(=O)Nc2ccc(O)cc2)C1 [Compound 60] | 
1.6 | 3 | CC(=O)Nc1cc(-c2ccc(Cl)cc2)n[nH]1 [Compound 2, N-(5-(4-Chlorophenyl)-1H-pyrazol-3-yl)acetamide] | inhibition at 30 µM [2]: 74%
64 | 3 | Cc1cccc(-c2ccc3nc(NCC4CCCCC4)nn3c2)c1 [Compound 36] | 
> 100 | > 100 | O=C1C=C(NC(=O)Nc2ccccc2)CCC1 [Compound 61] | 
1.2 | 0.9 | O=C(Nc1cc(-c2ccc(Cl)cc2)[nH]n1)C1CCC1 [Compound 7, N-(5-(4-Chlorophenyl)-1H-pyrazol-3-yl)cyclobutanecarboxamide] | inhibition at 30 µM [2]: 99%
